Results published in ChEMBL document CHEMBL1148227, “Biosynthesis of vitamin B6: direct identification of the product of the PdxA-catalyzed oxidation of 4-hydroxy-l-threonine-4-phosphate using electrospray ionization mass spectrometry” (Bioorg Med Chem Lett, 2004).

What was measured:
Assay type in all cases: ADME
Conditions in all cases: buffer
[1] = Half life at pH 8.1
[2] = Half life at pH 5.9
[3] = Half life at pH 7.8

SMILES	half-life [1]	half-life [2]	half-life [3]
CC(=O)C(N)C(=O)O (stereo not drawn)	15.2 min	8.57 min	–
NC(C(=O)O)C(=O)COP(=O)(O)O (stereo not drawn)	–	–	10 min
